For one data set, the system named is chymotrypsin. The data set can be described thus: Proteolytic degradation assay (chymotrypsin-based protocol). It counts as in vitro ADME. The conditions noted are these: for half-life: chymotrypsin-based protocol (protocol of ref 51), HPLC-MS read-out, Fig. 4b, read-out: t1/2, proteolytic degradation; for protection towards enzymatic degradation (in words): chymotrypsin, after 5–6 h, HPLC-MS profiles. On the procedure: Figure 4 Bioactive stapled peptides, biochemical and cellular studies. (a) Structure of stapled peptides 2l (valorphin analogue) and 2m (baratin analogue). (b) Proteolytic degradation assay of stapled peptides 2g and 2h and their linear precursors 1g and 1h. (c) Structure of labelled-stapled peptide 2j Bodipy (left) and the corresponding confocal microscopy image of SH-SY5Y cells treated with compound 2j Bodipy (750 nM). Scale bar, 25 μm (right).
Next, we determined the proteolytic stability of a couple of meaningful stapled peptides, in comparison with their respective linear counterparts. We followed a chymotrypsin-based protocol, previously used to evaluate stapled peptides.

The target of the next data set is ανβ3 integrin receptors (Homo sapiens, UniProt P05106+P06756). Kind of data set: Inhibition of cellular adhesion (integrin antagonism). It counts as cell-based. The source says: However, it has to be considered that even linear analogues display a much lower potency (10–10^3 times, depending on the targeted integrin) than the parent cilengitide.
Chain of ανβ3 integrin receptors (P06756 31-889 limits assumed): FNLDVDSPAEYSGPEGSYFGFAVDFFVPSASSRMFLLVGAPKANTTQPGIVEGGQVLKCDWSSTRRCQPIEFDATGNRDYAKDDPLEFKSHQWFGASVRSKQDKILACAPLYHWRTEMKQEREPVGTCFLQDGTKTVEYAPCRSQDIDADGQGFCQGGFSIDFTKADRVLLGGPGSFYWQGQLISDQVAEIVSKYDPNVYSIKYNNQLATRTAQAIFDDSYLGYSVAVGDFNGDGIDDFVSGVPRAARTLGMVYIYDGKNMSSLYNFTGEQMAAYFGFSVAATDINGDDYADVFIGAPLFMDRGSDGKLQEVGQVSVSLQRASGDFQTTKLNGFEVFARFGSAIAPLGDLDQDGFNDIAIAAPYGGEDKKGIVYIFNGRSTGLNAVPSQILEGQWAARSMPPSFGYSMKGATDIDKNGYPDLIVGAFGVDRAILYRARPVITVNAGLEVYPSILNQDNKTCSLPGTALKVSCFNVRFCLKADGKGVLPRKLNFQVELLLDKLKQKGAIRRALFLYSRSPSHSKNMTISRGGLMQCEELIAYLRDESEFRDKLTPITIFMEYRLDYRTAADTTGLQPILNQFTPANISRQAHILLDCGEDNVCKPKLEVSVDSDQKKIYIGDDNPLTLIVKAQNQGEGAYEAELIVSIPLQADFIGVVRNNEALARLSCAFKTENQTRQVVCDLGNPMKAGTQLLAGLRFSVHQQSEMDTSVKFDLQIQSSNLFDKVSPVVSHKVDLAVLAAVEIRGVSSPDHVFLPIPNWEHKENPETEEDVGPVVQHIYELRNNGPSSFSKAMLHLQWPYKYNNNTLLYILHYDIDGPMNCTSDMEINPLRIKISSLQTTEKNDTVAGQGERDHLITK
Chain of ανβ3 integrin receptors (P06756 891-1048 partner limits assumed): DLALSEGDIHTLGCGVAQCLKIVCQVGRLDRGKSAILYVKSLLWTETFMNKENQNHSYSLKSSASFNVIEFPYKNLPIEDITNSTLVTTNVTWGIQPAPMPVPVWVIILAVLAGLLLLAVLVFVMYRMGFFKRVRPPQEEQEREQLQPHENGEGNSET
Chain of ανβ3 integrin receptors (P05106 27-788): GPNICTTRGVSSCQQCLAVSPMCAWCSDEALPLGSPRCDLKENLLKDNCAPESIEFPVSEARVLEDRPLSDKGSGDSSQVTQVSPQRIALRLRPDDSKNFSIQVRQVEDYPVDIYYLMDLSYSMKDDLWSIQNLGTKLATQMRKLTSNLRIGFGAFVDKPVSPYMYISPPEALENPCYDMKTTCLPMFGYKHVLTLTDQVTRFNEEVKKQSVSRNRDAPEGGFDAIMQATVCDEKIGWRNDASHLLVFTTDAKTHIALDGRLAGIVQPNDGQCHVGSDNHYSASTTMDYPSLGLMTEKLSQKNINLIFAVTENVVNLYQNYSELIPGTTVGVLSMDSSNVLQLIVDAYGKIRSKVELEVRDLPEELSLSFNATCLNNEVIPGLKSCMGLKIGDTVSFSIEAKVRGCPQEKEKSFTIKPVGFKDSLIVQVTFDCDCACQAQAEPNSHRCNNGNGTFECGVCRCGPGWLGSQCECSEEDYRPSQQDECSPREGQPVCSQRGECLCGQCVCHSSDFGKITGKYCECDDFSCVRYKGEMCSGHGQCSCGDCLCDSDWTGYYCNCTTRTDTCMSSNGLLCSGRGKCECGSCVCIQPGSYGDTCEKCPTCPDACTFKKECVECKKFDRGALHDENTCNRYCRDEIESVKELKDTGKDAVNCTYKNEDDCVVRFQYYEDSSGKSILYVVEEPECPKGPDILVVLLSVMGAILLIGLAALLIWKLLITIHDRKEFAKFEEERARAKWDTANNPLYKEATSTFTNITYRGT
For data set [1], the system named is SH-SY5Y cells. Kind of data set: Cytotoxicity, MTT assay. It counts as cell-based. The conditions noted are these: 750 nM, 24 h incubation, triplicate, three independent experiments. The source says: (§1) Finally, we studied the controlled labelling of the stapled peptides. The goal was to selectively attach a fluorophore to the C-terminal amino acid to trace cellular permeabilization and localization. Thus, we linked a Bodipy residue to cyclopeptide 2j through an amino spacer (the novel Bodipy construct was designed and prepared for this purpose, see Supplementary Fig. 16 and Supplementary Methods), to get the desired labelled-stapled peptide 2j Bodipy (Fig. 4c) in a convenient manner. […] The cells treated in this manner were analysed using confocal microscopy.
(§2) Supplementary Figure 17 Cytotoxicity of 1j-Bodipy and 2j-Bodipy peptides using the MTT assay. The toxicity assay was carried out as described in the literature.13 SH-SY5Y cells were transferred to 96-well plates (100 μL medium/well) at a density of 5000 cell/well. After 24 h, cells in triplicate were treated either with 1j-Bodipy or 2j-Bodipy (750 nM and 50 µM) or TRITON 0.2% as positive control for 24 h. Values are represented as means ± SD from three independent experiments.
(§3) Supplementary Figure 18 FACS analysis of SH-SY5Y cells upon incubation with 1j-Bodipy and 2j-Bodipy. For FACS analysis, SH-SY5Y cells were seeded on a plastic 24 well plate and cultured for 24 h. […] Fluorescence sorting was performed with a Gallios Beckman Coulter flow […]

For data set [2], the system named is SH-SY5Y cells. The data set can be described thus: Cell penetration and localization (FACS flow cytometry and confocal microscopy). It counts as cell-based. The following applies: 750 nM.
Excerpt: as §1, §2, §3

The conditions of data set [3]: cc_pd bond.
The test system of data set [4] is several cancer cell lines. Kind of data set: Preliminary biological studies against several cancer cell lines. It counts as cell-based. The source says:
Nevertheless, the protocol seems general and offers new possibilities for peptide-based conjugation.

For a further data set, the system named is α-chymotrypsin. The data set can be described thus: chymotrypsin-based protocol. The following applies: up to 6 h.

Where two headings read alike, the source gives them in different places. Non-standard residues stand in square brackets, D forms with d. Residues, ends and D or L forms follow the SMILES beside them. Phe(3-I) = N[C@@H](Cc1cccc(I)c1)C(=O)O; Phe(4-I) = N[C@@H](Cc1ccc(I)cc1)C(=O)O

Take `CC(=O)N[C@@H](Cc1cccc(I)c1)C(=O)N[C@@H](CC(N)=O)C(=O)NCC(=O)N[C@@H](CCCNC(=N)N)C(=O)N[C@@H](Cc1c[nH]c2ccccc12)C(N)=O` [1g, Ac-m-I-Phe-Asn-Gly-Arg-Trp-NH2] (Ac-[Phe(3-I)]NGRW-NH2): in the data set with chymotrypsin, the half-life is 19.8 min and the “protection towards enzymatic degradation (in words)” value is given as “completely disappeared”.

Turning to `CC(=O)N[C@@H](Cc1cccc(I)c1)C(=O)N[C@@H](CCCNC(=N)N)C(=O)NCC(=O)N[C@@H](CC(=O)O)C(=O)N[C@@H](Cc1c[nH]c2ccccc12)C(N)=O` [1h, Ac-m-I-Phe-Arg-Gly-Asp-Trp-NH2] (Ac-[Phe(3-I)]RGDW-NH2), in the data set on chymotrypsin, the half-life is 52.5 min and the “protection towards enzymatic degradation (in words)” value is “completely disappeared”. On ανβ3 integrin receptors (preliminary studies, ανβ3 integrin antagonism, read-out: EC50, capacity to inhibit cellular adhesion), the EC50 was 26 µM.

Regarding `CC(=O)N[C@H]1Cc2cccc(c2)-c2[nH]c3ccccc3c2C[C@@H](C(N)=O)NC(=O)[C@H](CC(=O)O)NC(=O)CNC(=O)[C@H](CCCNC(=N)N)NC1=O` [2h], the “protection towards enzymatic degradation (in words)” value with chymotrypsin is reported as “almost total protection”. Further, the “selectivity ανβ3 versus ανβ5 integrin receptors (in words)” value at ανβ3 integrin receptors (preliminary cellular adhesion studies) is “act selectively as antagonists for the ανβ3 in front of ανβ5 integrin receptors”.

Regarding `CC(=O)N[C@@H](C)C(=O)N[C@H]1Cc2cccc(c2)-c2[nH]c3ccccc3c2C[C@@H](C(=O)N[C@@H](C)C(=O)NCCNC(=O)CCC(=O)Nc2ccc(C3=C4C(C)=CC(C)=[N+]4[B-](F)(F)n4c(C)cc(C)c43)cc2)NC(=O)[C@H](C(C)C)NC1=O` [2j Bodipy], the “cytotoxicity (in words)” value with SH-SY5Y cells [1] is listed as “low cytotoxicity”. For the same compound, the “cellular localization / penetration (in words)” value with SH-SY5Y cells [2] (incubation 30 min at 37 °C, confocal microscopy, fluorescence) was “localized both in the membrane and in the cytoplasmatic region”. In addition, the “cell staining in flow cytometry (FACS) (in words)” value in the data set on SH-SY5Y cells [2] (incubation for 30 min, 37 °C, 5% CO2, fluorescence) is on record as “brightly stained”.

In data set [3] (from Ac-Ala-Phe(2-I)-Trp-Ala-OH?, 10-membered ring, Pd(OAc)2/AgBF4/TFA?), `CC(=O)N[C@@H](C)C(=O)N[C@H]1Cc2ccccc2-c2[nH]c3ccccc3c2C[C@@H](C(=O)N[C@@H](C)C(=O)O)NC1=O` [Ac-Ala-Phe(2-I)-Trp-Ala-OH?] had a ring closure, conversion of 0%.

On to `CC(=O)N[C@@H](C)C(=O)N[C@H]1Cc2cccc(c2)-c2[nH]c3ccccc3c2C[C@@H](C(=O)N[C@@H](C)C(=O)O)NC(=O)[C@H](C)NC(=O)[C@H](C)NC(=O)[C@H](C)NC1=O` [Ac-Ala-Phe(3-I)-Ala-Ala-Ala-Trp-Ala-OH], for which the ring closure, conversion in data set [3] (from Ac-Ala-Phe(3-I)-Ala-Ala-Ala-Trp-Ala-OH, 20-membered ring, Pd(OAc)2 5 mol%/AgBF4/2-NO2BzOH, MW 15 min, DMF:PBS 1:1, 80.0 °C) stood at 100%.

In data set [3] (from Ac-Ala-Phe(3-I)-Ala-Ala-Trp-Ala-OH, 17-membered ring, Pd(OAc)2 5 mol%/AgBF4/2-NO2BzOH, MW 15 min, DMF:PBS 1:1, 80.0 °C), `CC(=O)N[C@@H](C)C(=O)N[C@H]1Cc2cccc(c2)-c2[nH]c3ccccc3c2C[C@@H](C(=O)N[C@@H](C)C(=O)O)NC(=O)[C@H](C)NC(=O)[C@H](C)NC1=O` [Ac-Ala-Phe(3-I)-Ala-Ala-Trp-Ala-OH] registered a ring closure, conversion of 100%.

The compound `CC(=O)N[C@@H](C)C(=O)N[C@H]1Cc2cccc(c2)-c2[nH]c3ccccc3c2C[C@@H](C(=O)N[C@@H](C)C(=O)O)NC(=O)[C@H](C)NC1=O` [Ac-Ala-Phe(3-I)-Ala-Trp-Ala-OH] returned a ring closure, conversion in data set [3] (from Ac-Ala-Phe(3-I)-Ala-Trp-Ala-OH, 14-membered ring, Pd(OAc)2 5 mol%/AgBF4/2-NO2BzOH, MW 15 min, DMF:PBS 1:1, 80.0 °C) of 38%.

In data set [3] (from Ac-Ala-Phe(3-I)-Trp-Ala-OH?, 11-membered ring, Pd(OAc)2/AgBF4/TFA?), `CC(=O)N[C@@H](C)C(=O)N[C@H]1Cc2cccc(c2)-c2[nH]c3ccccc3c2C[C@@H](C(=O)N[C@@H](C)C(=O)O)NC1=O` [Ac-Ala-Phe(3-I)-Trp-Ala-OH?] registered a ring closure, conversion of 60%.

With `CC(=O)N[C@@H](C)C(=O)N[C@H]1Cc2cccc(c2)-c2[nH]c3ccccc3c2C[C@@H](C(=O)N[C@@H](C)C(=O)O)NC(=O)[C@H](C(C)C)NC1=O` [Ac-Ala-Phe(3-I)-Val-Trp-Ala-OH], the ring closure, conversion in data set [3] (from Ac-Ala-Phe(3-I)-Val-Trp-Ala-OH, 14-membered ring, Pd(OAc)2 5 mol%/AgBF4/TFA, MW 20 min, DMF, 55.0 mM, 90.0 °C) amounted to 71%.

Regarding `CC(=O)N[C@@H](C)C(=O)N[C@H]1Cc2ccc(cc2)-c2[nH]c3ccccc3c2C[C@@H](C(=O)N[C@@H](C)C(=O)O)NC(=O)[C@@H](NC(=O)[C@H](C)NC(C)=O)Cc2ccc(cc2)-c2[nH]c3ccccc3c2C[C@@H](C(=O)N[C@@H](C)C(=O)O)NC1=O` [Ac-Ala-Phe(4-I)-Trp-Ala-OH], in data set [3] (from Ac-Ala-Phe(4-I)-Trp-Ala-OH, 24-membered ring, Pd(OAc)2 5 mol%/AgBF4/TFA, MW 20 min, DMF, 63.0 mM, 90.0 °C), the ring closure, conversion worked out at 60%.

Compound `CC(=O)N[C@@H](C)C(=O)N[C@H]1Cc2ccc(O)c(c2)-c2[nH]c3ccccc3c2C[C@@H](C(=O)N[C@@H](C)C(=O)O)NC(=O)[C@H](C)NC(=O)[C@H](C)NC(=O)[C@H](C)NC1=O` [Ac-Ala-Tyr(3-I)-Ala-Ala-Ala-Trp-Ala-OH] gave a ring closure, conversion in data set [3] (from Ac-Ala-Tyr(3-I)-Ala-Ala-Ala-Trp-Ala-OH, 20-membered ring, Pd(OAc)2 5 mol%/AgBF4/2-NO2BzOH, MW 15 min, DMF:PBS 1:1, 80.0 °C) of 100%.

On to `CC(=O)N[C@@H](C)C(=O)N[C@H]1Cc2ccc(O)c(c2)-c2[nH]c3ccccc3c2C[C@@H](C(=O)N[C@@H](C)C(=O)O)NC(=O)[C@H](C)NC(=O)[C@H](C)NC1=O` [Ac-Ala-Tyr(3-I)-Ala-Ala-Trp-Ala-OH], for which the ring closure, conversion in data set [3] (from Ac-Ala-Tyr(3-I)-Ala-Ala-Trp-Ala-OH, 17-membered ring, Pd(OAc)2 5 mol%/AgBF4/2-NO2BzOH, MW 15 min, DMF:PBS 1:1, 80.0 °C) was 100%.

As to `CC(=O)N[C@@H](C)C(=O)N[C@H]1Cc2ccc(O)c(c2)-c2[nH]c3ccccc3c2C[C@@H](C(=O)N[C@@H](C)C(=O)O)NC(=O)[C@H](C)NC1=O` [Ac-Ala-Tyr(3-I)-Ala-Trp-Ala-OH], the ring closure, conversion in data set [3] (from Ac-Ala-Tyr(3-I)-Ala-Trp-Ala-OH, 14-membered ring, Pd(OAc)2 5 mol%/AgBF4/2-NO2BzOH, MW 15 min, DMF:PBS 1:1, 80.0 °C) came to 100%.

`CC(=O)N[C@H]1Cc2cccc(c2)-c2[nH]c3ccccc3c2C[C@@H](C(N)=O)NC(=O)[C@H](CC(=O)O)NC(=O)CNC(=O)[C@H](CCCNC(=N)N)NC1=O` [Ac-Phe(3-I)-Arg-Gly-Asp-Trp-NH2] showed a ring closure, conversion in data set [3] (from Ac-Phe(3-I)-Arg-Gly-Asp-Trp-NH2, 20-membered ring, Pd(OAc)2 5 mol%/AgBF4/TFA, MW 20 min, DMF, 49.0 mM, 90.0 °C) of 70%.

With `CC(=O)N[C@H]1Cc2cccc(c2)-c2[nH]c3ccccc3c2C[C@@H](C(N)=O)NC(=O)[C@H](CCCNC(=N)N)NC(=O)CNC(=O)[C@H](CC(N)=O)NC1=O` [Ac-Phe(3-I)-Asn-Gly-Arg-Trp-NH2], the ring closure, conversion in data set [3] (from Ac-Phe(3-I)-Asn-Gly-Arg-Trp-NH2, 20-membered ring, Pd(OAc)2 5 mol%/AgBF4/TFA, MW 20 min, DMF, 49.0 mM, 90.0 °C) came out at 77%.

In the case of `C[C@H](N)C(=O)N[C@H]1Cc2cccc(c2)-c2[nH]c3ccccc3c2C[C@@H](C(=O)N[C@@H](C)C(=O)O)NC(=O)[C@H](C)NC(=O)[C@H](CO)NC1=O` [H-Ala-Phe(3-I)-Ser-Ala-Trp-Ala-OH], the ring closure, conversion in data set [3] (from H-Ala-Phe(3-I)-Ser-Ala-Trp-Ala-OH, 17-membered ring, Pd(OAc)2 5 mol%/AgBF4/TFA, MW 20 min, DMF, 54.0 mM, 90.0 °C) came to 39%.

As for `C[C@@H]1NC(=O)[C@H](CCCNC(=N)N)NC(=O)CNC(=O)[C@H](CC(N)=O)NC(=O)[C@H](C)NC(=O)[C@H](Cc2c[nH]c3ccccc23)NC1=O` [compound 3] (cyclo(ANGRAW)), the “activity against several cancer cell lines (in words)” value in data set [4] is “only the cyclopeptide 4 showed activity”.

Compound `CC(C)C[C@@H]1NC(=O)[C@H](Cc2ccc(I)cc2)NC(=O)[C@H](CC(C)C)NC(=O)[C@H](C(C)C)NC(=O)[C@H](CC(C)C)NC1=O` [compound 4] (cyclo(LLVL[Phe(4-I)])) gave an IC50 in data set [4] of less than 10 µM.

With Ac-[Phe(3-I)]NGRW-NH2, the cleaved bond entry with α-chymotrypsin is “m-I-Phe-Asn”.

Consider Ac-[Phe(3-I)]RGDW-NH2, for which the cleaved bond result in the data set on α-chymotrypsin is listed as “m-I-Phe-Arg”.

These data come from article PMC4455059 (Nature Communications, 2015).
